In one data set the test system is SJSA-1. Briefly: Cell viability assay (MTT), SJSA-1. Conditions: read-out: SJSA-1 EC50 (72 h); 72 h, MTT.
A short description of data set [1]: Circular dichroism (CD) analysis of alpha-helicity. Format: physicochemical. Conditions: for Molar Ellipticity TFE − Molar Ellipticity Benign / Molar Ellipticity 50% TFE (222 in 50% TFE) / Molar Ellipticity Benign (222 in 0% TFE): 222 nm; for Molar Ellipticity 50% TFE (222 in 50% TFE): CD buffer with 50% TFE; for Molar Ellipticity 50% TFE (222 in 50% TFE) / Molar Ellipticity Benign (222 in 0% TFE): 0.05 mg/ml, 4° C.; for Molar Ellipticity Benign (222 in 0% TFE): benign CD buffer (20 mM phosphoric acid, pH 2); for % Helix benign compared to 50% TFE parent (CD): benign buffer. The method, then:
Peptide solutions were analyzed by CD spectroscopy using a Jasco J-815 spectropolarimeter (Jasco Inc., Easton, Md.) with the Jasco Spectra Manager Ver. 2 system software. A Peltier temperature controller was used to maintain temperature control of the optical cell. Results are expressed as mean molar ellipticity (deg cm^2 dmol^−1) as calculated from the equation [0]=θobs·MRW/10*l*c where θobs is the observed ellipticity in millidegrees, MRW is the mean residue weight of the peptide (peptide molecular weight/number of residues), 1 is the optical path length of the cell in centimeters, and c is the peptide concentration in mg/ml. Peptide concentrations were determined by amino acid analysis. Stock solutions of peptides were prepared in benign CD buffer (20 mM phosphoric acid, pH 2). The stocks were used to prepare peptide solutions of 0.05 mg/ml in either benign CD buffer or CD buffer with 50% trifluoroethanol (TFE) for analyses in a 10 mm pathlength cell. Variable wavelength measurements of peptide solutions were scanned at 4° C. from 195 to 250 nm, in 0.2 nm increments, and a scan rate 50 nm per minute. The average of six scans was reported.

A further data set deals with Caspase 3. Briefly: Caspase 3 detection assay in SJSA1 cells. Format: cell-based. Conditions: SJSA1, 48 h, Caspase 3 activation over DMSO-treated cells.
The subject of the next data set is SJSA-1 cells. Nature of the data set: Cell lysis by peptidomimetic macrocycles (LDH release). The format is cell-based. Conditions: SJSA-1, 1 h. In a few lines: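 Membrane lysis measured as supernatant LDH after a 1 h, 37 °C exposure of SJSA-1 cells, held in RPMI with 1% FBS, to macrocycles at final 6.25-50 μM with 0.5% DMSO. Lytic references were 10 μM melittin and 1% Triton X-100; DMSO alone served as non-lytic control.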
Background: LDH in the medium is a marker of cell lysis.

In a further data set the test system is RKO. Nature of the data set: Cell viability assay (MTT), RKO. Conditions: read-out: RKO EC50 (72 h).

Bridge positions count the residues as written; N and C are the ends. Square brackets hold non-standard residues; d marks the D form. Peptide text beside a SMILES is read from it. R8 = C=CCCCCCC[C@@](C)(N)C(=O)O; S5 = C=CCCC[C@](C)(N)C(=O)O

The term EC50 denotes the concentration that produces a half-maximal response. As for `CCCC[C@H](NC(=O)[C@H](C)NC(=O)[C@H](C)NC(=O)[C@]1(C)CCCC=CCCCCCC[C@@](C)(NC(=O)[C@H](Cc2ccccc2)NC(=O)[C@@H](NC(=O)[C@H](CC(C)C)NC(C)=O)[C@@H](C)O)C(=O)N[C@@H](C)C(=O)N[C@@H](Cc2ccc(O)cc2)C(=O)N[C@@H](Cc2c[nH]c3ccccc23)C(=O)N[C@@H](C)C(=O)N[C@@H](CCC(N)=O)C(=O)N[C@@H](CC(C)C)C(=O)N1)C(=O)N[C@@H](C)C(N)=O` (single isomer, unassigned) [compound 68], the EC50 in the data set with SJSA-1 is < 5 µM.

`CCCC[C@H](NC(=O)[C@H](C)NC(=O)[C@H](C)NC(=O)[C@]1(C)CCCC=CCCCCCC[C@@](C)(NC(=O)[C@H](Cc2ccccc2)NC(=O)[C@@H](NC(=O)[C@H](CC(C)C)NC(C)=O)[C@@H](C)O)C(=O)N[C@@H](C)C(=O)N[C@@H](Cc2ccc(O)cc2)C(=O)N[C@@H](Cc2c[nH]c3ccccc23)C(=O)N[C@@H](C)C(=O)N[C@@H](CCC(N)=O)C(=O)N[C@@H](CC(C)C)C(=O)N1)C(=O)N[C@H](C)C(N)=O` (single isomer, unassigned) [compound 74]: in the data set on SJSA-1, the EC50 was < 5 µM.

As to `CC(=O)N[C@@H](CC(C)C)C(=O)N[C@H](C(=O)N[C@@H](Cc1ccccc1)C(=O)N[C@]1(C)CCCCCCC=CCCC[C@@](C)(C(=O)N[C@@H](C)C(=O)N[C@@H](C)C(=O)N[C@@H](C)C(=O)N[C@@H](C)C(=O)N[C@@H](C)C(=O)N[C@H](C)C(N)=O)NC(=O)[C@H](CC(C)C)NC(=O)[C@H](CCC(N)=O)NC(=O)[C@H](C)NC(=O)[C@H](Cc2c[nH]c3ccccc23)NC(=O)[C@H](Cc2ccc(O)cc2)NC(=O)[C@H](CCC(=O)O)NC1=O)[C@@H](C)O` (single isomer, unassigned) [compound 449], in the data set with SJSA-1, the EC50 is < 5 µM.

For the compound `CC(=O)N[C@@H](CC(C)C)C(=O)N[C@H](C(=O)N[C@@H](Cc1ccccc1)C(=O)N[C@]1(C)CCCCCCC=CCCC[C@@](C)(C(=O)N[C@@H](C)C(=O)N[C@@H](C)C(=O)N[C@@H](C)C(=O)N[C@H](C)C(=O)N[C@@H](C)C(=O)N[C@H](C)C(N)=O)NC(=O)[C@H](CC(C)C)NC(=O)[C@H](CCC(N)=O)NC(=O)[C@H](C)NC(=O)[C@H](Cc2c[nH]c3ccccc23)NC(=O)[C@H](Cc2ccc(O)cc2)NC(=O)[C@H](CCC(=O)O)NC1=O)[C@@H](C)O` (single isomer, unassigned) [compound 571], in the data set on SJSA-1, the EC50 was < 5 µM.

Take `CC(=O)N[C@@H](CC(C)C)C(=O)N[C@H](C(=O)N[C@@H](Cc1ccccc1)C(=O)N[C@]1(C)CCCCCCC=CCCC[C@@](C)(C(=O)N[C@@H](C)C(=O)N[C@@H](C)C(=O)N[C@@H](C)C(=O)N[C@@H](C)C(=O)N[C@@H](C)C(=O)N[C@H](C)C(N)=O)NC(=O)[C@H](CC(C)C)NC(=O)[C@H](CCC(N)=O)NC(=O)[C@H](C)NC(=O)[C@H](Cc2c[nH]c3ccccc23)NC(=O)[C@H](Cc2ccc(O)cc2)NC(=O)[C@H](CCC(=O)O)NC1=O)[C@@H](C)O` (single isomer, unassigned) [compound 579]: in the data set on SJSA-1, the EC50 was < 5 µM.

`CC(=O)N[C@@H](CC(C)C)C(=O)N[C@H](C(=O)N[C@@H](Cc1ccccc1)C(=O)N[C@]1(C)CCCCCCC=CCCC[C@@](C)(C(=O)N[C@@H](CO)C(=O)N[C@@H](C)C(=O)N[C@@H](Cc2ccccc2)C(N)=O)NC(=O)[C@H](CC(C)C)NC(=O)[C@H](CCC(N)=O)NC(=O)[C@H](C)NC(=O)[C@H](Cc2c[nH]c3ccccc23)NC(=O)[C@H](Cc2ccc(O)cc2)NC(=O)[C@H](C)NC1=O)[C@@H](C)O` [compound 7] (Ac-LTF[R8]AYWAQL[S5]SAF-NH2; staple 4-11): in data set [1], the “% Helix 50% TFE compared to 50% TFE parent (CD)” value is 137.3%, the “Molar Ellipticity TFE − Molar Ellipticity Benign” value is on record as −20045.4 deg cm^2 dmol^−1, the “Molar Ellipticity 50% TFE (222 in 50% TFE)” value was −19921.4 deg cm^2 dmol^−1 and the “Molar Ellipticity Benign (222 in 0% TFE)” value is given as 124 deg cm^2 dmol^−1. Moreover, in data set [1], the “% Helix benign compared to 50% TFE parent (CD)” value is −0.9%. In addition, in the data set with Caspase 3, the “caspase 0.3 μM” value was 0.93, the “caspase 3 μM” value worked out at 5.08, the “caspase 10 μM” value was determined as 21.7 and the “caspase 30 μM” value came out at 23.96. Besides, the “caspase 1 μM” value in the data set on Caspase 3 (1 μM) is on record as 1.4. Further, in the data set with SJSA-1 cells, the “6.25 μM % Lysed cells (1 h LDH)” value is given as 0%, the “25 μM % Lysed cells (1 h LDH)” value is recorded as 0% and the “50 μM % Lysed cells (1 h LDH)” value is recorded as 0%. Further, in the data set on RKO, the EC50 is < 5 µM.

Turning to `CC(=O)N[C@@H](CC(C)C)C(=O)N[C@H](C(=O)N[C@@H](Cc1ccccc1)C(=O)N[C@]1(C)CCCCCCC=CCCC[C@@](C)(C(=O)N[C@@H](CO)C(=O)N[C@@H](C)C(=O)N[C@@H](C)C(N)=O)NC(=O)[C@H](CC(C)C)NC(=O)[C@H](CCC(N)=O)NC(=O)[C@H](C)NC(=O)[C@H](Cc2c[nH]c3ccccc23)NC(=O)[C@H](Cc2ccc(O)cc2)NC(=O)[C@H](C)NC1=O)[C@@H](C)O` [compound 11] (Ac-LTF[R8]AYWAQL[S5]SAA-NH2; staple 4-11), in data set [1], the “% Helix 50% TFE compared to 50% TFE parent (CD)” value is listed as 106.1%, the “Molar Ellipticity TFE − Molar Ellipticity Benign” value is reported as 16225.2 deg cm^2 dmol^−1, the “Molar Ellipticity 50% TFE (222 in 50% TFE)” value was −16623.4 deg cm^2 dmol^−1 and the “Molar Ellipticity Benign (222 in 0% TFE)” value is −398.2 deg cm^2 dmol^−1. Further, the “% Helix benign compared to 50% TFE parent (CD)” value in data set [1] is given as 2.5%. Further, in the data set on Caspase 3, the “caspase 0.3 μM” value came to 1, the “caspase 3 μM” value is on record as 5, the “caspase 10 μM” value is reported as 23 and the “caspase 30 μM” value came to 33.5. Further, in the data set with SJSA-1 cells, the “6.25 μM % Lysed cells (1 h LDH)” value is given as −2%, the “25 μM % Lysed cells (1 h LDH)” value stood at 2% and the “50 μM % Lysed cells (1 h LDH)” value worked out at 3%. Moreover, the EC50 in the data set with RKO was < 5 µM.

With `CC[C@H](C)[C@H](NC(=O)[C@H](C)NC(=O)[C@H](C)NC(=O)[C@]1(C)CCCCCCC=CCCC[C@@](C)(NC(=O)[C@H](Cc2ccccc2)NC(=O)[C@@H](NC(=O)[C@H](CC(C)C)NC(C)=O)[C@@H](C)O)C(=O)N[C@@H](C)C(=O)N[C@@H](Cc2ccc(O)cc2)C(=O)N[C@@H](Cc2c[nH]c3ccccc23)C(=O)N[C@@H](C)C(=O)N[C@@H](CCC(N)=O)C(=O)N[C@@H](CC(C)C)C(=O)N1)C(=O)N[C@H](C)C(N)=O` [compound 234], the EC50 with SJSA-1 is < 5 µM.

Turning to `CC(=O)N[C@@H](CC(C)C)C(=O)N[C@H](C(=O)N[C@@H](Cc1ccccc1)C(=O)N[C@]1(C)CCCCCCC=CCCC[C@@](C)(C(=O)N[C@@H](C)C(=O)N[C@H](C)C(=O)N[C@@H](C)C(=O)N[C@@H](C)C(=O)N[C@@H](C)C(=O)N[C@H](C)C(N)=O)NC(=O)[C@H](CC(C)C)NC(=O)[C@H](CCC(N)=O)NC(=O)[C@H](C)NC(=O)[C@H](Cc2c[nH]c3ccccc23)NC(=O)[C@H](Cc2ccc(O)cc2)NC(=O)[C@H](CCC(=O)O)NC1=O)[C@@H](C)O` [compound 568], the EC50 in the data set on SJSA-1 was 5 to 15 µM.

`CC(=O)N[C@@H](CC(C)C)C(=O)N[C@H](C(=O)N[C@@H](Cc1ccccc1)C(=O)N[C@]1(C)CCCCCCC=CCCC[C@@](C)(C(=O)N[C@@H](C)C(=O)N[C@@H](C)C(=O)N[C@H](C)C(=O)N[C@@H](C)C(=O)N[C@@H](C)C(=O)N[C@H](C)C(N)=O)NC(=O)[C@H](CC(C)C)NC(=O)[C@H](CCC(N)=O)NC(=O)[C@H](C)NC(=O)[C@H](Cc2c[nH]c3ccccc23)NC(=O)[C@H](Cc2ccc(O)cc2)NC(=O)[C@H](CCC(=O)O)NC1=O)[C@@H](C)O` [compound 569]: the EC50 in the data set on SJSA-1 was < 5 µM.

As for `CC(=O)N[C@@H](CC(C)C)C(=O)N[C@H](C(=O)N[C@@H](Cc1ccccc1)C(=O)N[C@]1(C)CCCCCC/C=C/CCC[C@@](C)(C(=O)N[C@@H](C)C(=O)N[C@@H](C)C(=O)N[C@@H](C)C(=O)N[C@@H](C)C(=O)N[C@H](C)C(=O)N[C@H](C)C(N)=O)NC(=O)[C@H](CC(C)C)NC(=O)[C@H](CCC(N)=O)NC(=O)[C@H](C)NC(=O)[C@H](Cc2c[nH]c3ccccc23)NC(=O)[C@H](Cc2ccc(O)cc2)NC(=O)[C@H](CCC(=O)O)NC1=O)[C@@H](C)O` [compound 572], the EC50 with SJSA-1 was < 5 µM.

For `CC(=O)N[C@@H](CC(C)C)C(=O)N[C@H](C(=O)N[C@@H](Cc1ccccc1)C(=O)N[C@]1(C)CCCCCC/C=C/CCC[C@@](C)(C(=O)N[C@@H](C)C(=O)N[C@@H](C)C(=O)N[C@@H](C)C(=O)N[C@@H](C)C(=O)N[C@@H](C)C(=O)N[C@@H](C)C(N)=O)NC(=O)[C@H](CC(C)C)NC(=O)[C@H](CCC(N)=O)NC(=O)[C@H](C)NC(=O)[C@H](Cc2c[nH]c3ccccc23)NC(=O)[C@H](Cc2ccc(O)cc2)NC(=O)[C@H](CCC(=O)O)NC1=O)[C@@H](C)O` [compound 573], the EC50 in the data set with SJSA-1 is < 5 µM.

The record behind these values is patent US20200369728A1, “PEPTIDOMIMETIC MACROCYCLES AND USES THEREOF” (Aileron Therapeutics, Inc., priority 2015, published 2020).
